# According to patent US20180177749A1, “USE OF CYP EXPRESSION TO DIRECT THERAPEUTIC INTERVENTION IN CANCER” (REGENTS OF THE UNIVERSITY OF MINNESOTA, priority 2016, published 2018):
# Test system: MCF-7 xenograft
# Experiment: RPPA of protein expression, MCF-7 xenograft endpoint analysis
# Format: in vivo, nude mice
# Conditions: 4 mg/kg/day vs. PBS
# Description: Frozen xenograft tissue samples were embedded in OCT, and 8 μm sections were obtained using a cryostat. […] The resulting whole tissue lysates were boiled for 8 min at 100° C. and then printed onto a nitrocellulose slide (Avid, Grace Biolabs) along with a BSA protein concentration curve to estimate total protein concentration in each lysate. Total protein levels were assessed in each sample by staining with Sypro Ruby Protein Blot Stain (Invitrogen) according to manufacturer's instructions.
# The total protein concentration in each sample was estimated by printing onto a nitrocellulose slide along with a BSA standard concentration curve, and total protein levels were assessed by staining with Sypro Ruby Protein Blot Stain (Invitrogen) according to manufacturer's instructions. Tissue lysates were diluted to 250 μg/ml in extraction buffer and stored at −80° C. prior to printing of arrays. RPPA printing and analysis of xenograft samples was conducted as previously described (Wulfkuhle et al., Clin Cancer Res. 2012; 18:6426-35). Antibody staining intensities were quantified using the MicroVigene v5 Software Package (Vigenetech). Signaling pathway activation was evaluated by staining the arrays with 156 antibodies against signaling endpoints, mainly phosphorylated and cleaved protein products. Before use for RPPA analysis, antibody specificity was confirmed by Western blot and analysis as previously described (Wulfkuhle et al., Clin Cancer Res. 2012; 18:6426-35).
# [1] = *separate RPPA analysis, separate β actin probe
smiles,measurement,setting,value
"CCCCCCNC(=N)NC(=N)NCc1ccccc1 [HBB, N1-hexyl-N5-benzyl-biguanide]",fold change: 4EBP1 S65,,1.051
same,fold change: 4EBP1 T37/46,,1.261
same,fold change: 4EBP1 T70,,0.595
same,fold change: A-Raf S299,,0.862
same,fold change: AKT S473,,1.042
same,fold change: AKT T308,,0.793
same,fold change: ALK,,1.079
same,fold change: ALK Y1604,,0.954
same,fold change: AMPKalpha S485,,1.126
same,fold change: AMPKbeta S108,,0.665
same,fold change: ATF2 T69/71,,0.713
same,fold change: ATM S1981,,1.034
same,fold change: ATP CItrate Lyase S454,,1.000
same,fold change: ATR S428,,0.810
same,fold change: AXL,,0.566
same,fold change: Acetyl-CoA Carboxylase S79,,0.927
same,fold change: Actin beta,,1.000
same,fold change: Aurora A T288/B T232/C T198,,0.646
same,fold change: B-RAF,,1.130
same,fold change: B-Raf S445,,0.764
same,fold change: BAD,,2.424
same,fold change: BAD S112,,0.833
same,fold change: BAD S136,,0.958
same,fold change: BCL-2,,0.825
same,fold change: BIM,,0.727
same,fold change: Bak,,0.789
same,fold change: Bax,,0.807
same,fold change: Bcl_xL,,0.909
same,fold change: Beclin 1,,0.881
same,fold change: CREB S133,,0.626
same,fold change: Chk1 S345,,1.290
same,fold change: Cl Caspase 3 D175,,1.109
same,fold change: Cl Caspase 9 D315,,1.151
same,fold change: Cl Caspase 9 D330,,1.244
same,fold change: Cleaved PARP D214,,1.277
same,fold change: Cofilin S3,,0.443
same,fold change: CrkL Y207,,0.962
same,fold change: Cyclin A,,1.779
same,fold change: Cyclin B1 V152,,1.197
same,fold change: Cyclin D1 (G124-326),,1.277
same,fold change: Cyclin D1 T286,,0.611
same,fold change: E-Cadherin,,0.669
same,fold change: EGFR,,0.857
same,fold change: EGFR Y992,,0.803
same,fold change: EGFR Y1068,,1.089
same,fold change: EGFR Y1148,,0.891
same,fold change: EGFR Y1173,,0.954
same,fold change: ER TOTAL,,1.687
same,fold change: ER alpha S118,,0.964
same,fold change: ERK 1-2 T202/Y204,,0.423
same,fold change: ERK TOTAL,,0.791
same,fold change: Elk S383,,1.402
same,fold change: Ephrin A3 Y799/A4 Y799/A5 Y833,,1.149
same,fold change: ErbB2/HER2 Y877,,0.951
same,fold change: ErbB2/HER2 Y1248,,1.239
same,fold change: ErbB3/HER3,,0.851
same,fold change: ErbB3/HER3 Y1197,,1.223
same,fold change: ErbB3/HER3 Y1289,,1.268
same,fold change: FADD S194,,0.672
same,fold change: FAK Y576/577,,1.021
same,fold change: FKHR T24/FKHRL1 T32,,0.698
same,fold change: FKHRL1 S253,,0.960
same,fold change: FOXO1 S256,,0.854
same,fold change: GRB2,,0.830
same,fold change: GSK-3alpha/beta S21/9,,0.791
same,fold change: HIF-1 alpha,,2.406
same,fold change: HSP27 S82,,0.877
same,fold change: HSP70,,1.453
same,fold change: HSP90a T5/7,,0.945
same,fold change: Heregulin,,20.774
same,fold change: Histone H3 S28,,0.898
same,fold change: IGF1R Y1135/36-IR Y1150/51,,1.101
same,fold change: IGF-1R Y1131/IR Y1146,,1.019
same,fold change: IGFBP7,,0.992
same,fold change: IL6,,1.260
same,fold change: IRS1,,1.014
same,fold change: IRS-1 S612,,0.952
same,fold change: IkappaB-alpha S32/36,,1.130
same,fold change: Insulin Receptor Beta,,1.261
same,fold change: Jak2 Y1007,,0.881
same,fold change: KI67,,0.731
same,fold change: LC3B,,1.097
same,fold change: LIMK1 T508/LIMK2 T505,,0.795
same,fold change: LKB1 S428,,1.269
same,fold change: MARCKS S152/156,,1.071
same,fold change: MCSFR Y723,,1.228
same,fold change: MDM2 S166,,0.868
same,fold change: MEK 1/2 S217/221,,0.770
same,fold change: Met Y1234/1235,,1.033
same,fold change: Musashi,,0.898
same,fold change: NF-kappaB p65 S536,,0.817
same,fold change: PAK1 S199/204-PAK2 S192/197,,1.221
same,fold change: PAK1 T423/PAK2 T402,,1.028
same,fold change: PDGFR alpha Y754,,1.144
same,fold change: PDGFR beta,,0.705
same,fold change: PDGFR beta Y716,,0.887
same,fold change: PDK1 S241,,0.712
same,fold change: PDL1,,34.857
same,fold change: PKA C T197,,0.907
same,fold change: PKC delta/theta S643/S676,,0.671
same,fold change: PLK1 T210,,1.018
same,fold change: PTEN,,0.726
same,fold change: PTEN S380,,0.783
same,fold change: PUMA,,0.919
same,fold change: RAS TOTAL,,1.543
same,fold change: Ras_GRF1,,1.021
same,fold change: Rb S780,,0.674
same,fold change: Ret Y905,,0.810
same,fold change: Ros Y2274,,1.201
same,fold change: S6 Ribosomal Protein S240/244,,0.817
same,fold change: SAPK/JNK T183/Y185,,1.033
same,fold change: SGK1 S78,,1.318
same,fold change: SMAD2 S245/250/255,,0.760
same,fold change: STAT3 S727,,1.040
same,fold change: Shc Y317,,0.792
same,fold change: Smad1 Ser463/465-Smad5 Ser463/465-Smad9 Ser465/467,,0.900
same,fold change: Src Y527,,0.675
same,fold change: Src family Y416,,0.471
same,fold change: Stat 1 Y701,,0.937
same,fold change: Stat3 Y705,,0.936
same,fold change: Stat 5 Y694,,0.558
same,fold change: TGF-beta,,0.952
same,fold change: TNF alpha,,1.186
same,fold change: Tuberin/TSC2 Y1571,,1.208
same,fold change: VEGFR2 Y996,,0.828
same,fold change: Vimentin,,0.896
same,fold change: XIAP,,0.835
same,fold change: c-Abl T735,,0.776
same,fold change: c-Abl Y245,,0.846
same,fold change: c-ErbB2/HER2,,1.938
same,fold change: c-Kit Y703,,4.550
same,fold change: c-Met TOTAL,,0.877
same,fold change: c-Myc,,0.879
same,fold change: c-Raf S338,,1.016
same,fold change: eIF4G S1108,,0.791
same,fold change: eNOS/NOS III S116,,0.902
same,fold change: mTOR S2448,,1.034
same,fold change: p27 Kip1,,0.925
same,fold change: p27 T187,,0.685
same,fold change: p38 MAP Kinase T180/Y182,,1.011
same,fold change: p53,,0.997
same,fold change: p53 S15,,0.990
same,fold change: p70S6 Kinase,,0.674
same,fold change: p70 S6 Kinase S371,,0.762
same,fold change: p70 S6 Kinase T389,,0.773
same,fold change: p70 S6 Kinase T412,,0.998
same,fold change: p90RSK S380,,1.016
same,fold change: p90RSK T359/S363,,0.884
same,fold change: pYAP S127,,0.931
same,fold change: AMPK T172*,[1],0.598
same,fold change: AMPK total*,[1],1.69
same,fold change: PKM2 Y105*,[1],2.13
same,fold change: PKM2 total*,[1],1.01
